Results published in US8808737B2 (Endo Pharmaceuticals Inc., priority 2007, dated 2014).

What was measured:
[1] = Example 5: plasma pharmacokinetics of oxymorphone and metabolites after EN3202 in renal impairment vs healthy controls; settings: for Mean bioavailability ratio (90% confidence interval) for AUC relative to controls / Mean bioavailability ratio (90% confidence interval) for Cmax relative to controls: ln-transformed; for AUC in plasma (mean, untransformed) / AUCT in plasma (mean, untransformed) / Cmax in plasma (mean, untransformed) / Tmax in plasma (median) / t½, terminal elimination half-life in plasma (mean) / Ke, terminal elimination rate constant in plasma (mean): single 20 mg dose of EN3202
Method: (§1) Attempts were made to match controls with the renal impaired patients with respect to age, gender, and weight. […] Naltrexone (50 mg) was administered on the evening prior to administration of the EN3202 dose.
In order to protect the subjects from potential opioid-related adverse events, a single 50-mg dose of the opioid antagonist ReVia® (naltrexone HCl) was administered at 20:00 the evening prior to administration of test medication. […] Subjects continued fasting until four (4) hours after dose administration. The subjects remained in an upright posture (sitting or standing) for 1 hour after dose administration. All doses were administered with 240 mL of water (room temperature), and the subjects were instructed to drink all the water.
(§2) Plasma and urine pharmacokinetic variables were calculated from the concentration data using standard, non-compartmental methods as outlined in the following table.
All pharmacokinetic results are summarized using appropriate descriptive statistics. Continuous variables were compared between renally impaired and control groups using appropriate parametric statistics. 90% confidence intervals were calculated for the differences or ratios between the renally impaired and control groups. In addition, the association between oral clearance (and other pharmacokinetic variables) and the severity of renal insufficiency (based on creatinine clearance) was explored.

[2] = Example 5: urinary excretion of oxymorphone and metabolites after EN3202 in renal impairment; settings: for Mean percentage of the administered dose excreted in the urine / Mean urinary elimination half-life: EN3202 20 mg; for Mean percentage of the administered dose excreted in the urine: 0-120 hours; for Mean (SD) Ratio of Metabolite/Parent Excreted in Urine: parent = oxymorphone; for Mean (SD) Percent of Dose Recovered in Urine (0-120 hours): single oral 20-mg dose of EN3202
Method: as §1
Each subject was to be instructed to void at the end of each interval (so that each collection interval began with an empty bladder). The void prior to administration of the test medication (time 0) served as the pre-dose blank and was not be included in the collection container.
as §2

[3] = Example 5: correlation of oxymorphone and metabolite plasma AUC / oral clearance with creatinine clearance; format: in vivo, human; settings: linear regression; for AUC/wt vs. CLCR: R-square / AUC/wt vs. CLCR: Slope: AUC normalized for body weight vs creatinine clearance; for AUC vs. CLCR: R-square / AUC vs. CLCR: Slope: plasma AUC vs creatinine clearance
From the text: Creatinine clearance (ClCR) was estimated at screening using the following Cockroft and Gault^8 equation: […]
All pharmacokinetic results are summarized using appropriate descriptive statistics.
The potential association between plasma AUC and creatinine clearance was explored using linear regression techniques and the results are summarized in Table 36 and FIG. 16.

[4] = Pain levels (VAS, categorical scale) vs plasma oxymorphone and 6-hydroxyoxymorphone after a single dose; format: in vivo, human; settings: single dose of oxymorphone, FIGS. 1-4
Method: For these tests, pain was measured using a Visual Analog Scale (VAS) or a Categorical Scale. The VAS scales consisted of a horizontal line, 100 mm in length. The left-hand end of the scale (0 mm) was marked with the descriptor “No Pain” and the right-hand end of the scale (100 mm) was marked with the descriptor “Extreme Pain”. Patients indicated their level of pain by making a vertical mark on the line. The VAS score was equal to the distance (in mm) from the left-hand end of the scale to the patient's mark. For the categorical scale, patients completed the following statement, “My pain at this time is” using the scale None=0, Mild=1, Moderate=2, or Severe=3.

[5] = EN3202 20 mg, mild renal impairment
[6] = EN3202 20 mg, moderate renal impairment
[7] = EN3202 20 mg, severe renal impairment
[8] = Healthy Controls, listed as oxymorphone-3-glucuronide
[9] = Severe Impairment, listed as oxymorphone-3-glucuronide
[10] = subjects with mild renal impairment
[11] = subjects with moderate renal impairment
[12] = subjects with severe renal impairment

For `CN1CC[C@]23c4c5ccc(O[C@@H]6O[C@H](C(=O)O)[C@@H](O)[C@H](O)[C@H]6O)c4O[C@H]2C(=O)CC[C@@]3(O)[C@H]1C5` [Oxymorphone-3-glucuronide, oxymorphone-3-glucuronide], the “Mean plasma metabolite:oxymorphone ratio of AUC values (molar units)” value (“Mean plasma metabolite:oxymorphone ratio” for short) ([1]; EN3202 20 mg, healthy controls) was 94.1, the “Mean plasma metabolite:oxymorphone ratio” value [1, 5] was 132.3 and the “Mean bioavailability ratio (90% confidence interval) for AUC relative to controls” value [1, 5] was 1.7960 (1.3071-2.4677). For the same compound, the “Mean bioavailability ratio (90% confidence interval) for Cmax relative to controls” value [1, 5] was 1.5769 (1.2146-2.0473), the “Mean plasma metabolite:oxymorphone ratio” value [1, 6] was 191.4 and the “Mean bioavailability ratio (90% confidence interval) for AUC relative to controls” value [1, 6] was 3.1196 (2.2704-4.2863). The “Mean bioavailability ratio (90% confidence interval) for Cmax relative to controls” value [1, 6] was 1.9830 (1.5274-2.5745), the “Mean plasma metabolite:oxymorphone ratio” value [1, 7] was 505.6 and the “Mean bioavailability ratio (90% confidence interval) for AUC relative to controls” value [1, 7] was 9.0701 (6.6013-12.462). For the same compound, the “Mean bioavailability ratio (90% confidence interval) for Cmax relative to controls” value [1, 7] was 3.1422 (2.4202-4.0795), the “Mean increase in plasma AUC values relative to healthy controls” value ([1]; EN3202 20 mg, subjects with creatinine clearance values, 30 mL/min) was about 9.7 fold and the “AUC in plasma (mean, untransformed)” value ([1]; Healthy Controls) was 2439.7 ng·h/mL. The “AUCT in plasma (mean, untransformed)” value ([1]; Healthy Controls) was 2309.5 ng·h/mL, the “Cmax in plasma (mean, untransformed)” value ([1]; Healthy Controls) was 170.1 ng/mL and the “Tmax in plasma (median)” value ([1]; Healthy Controls) was 3.0 h. The “t½, terminal elimination half-life in plasma (mean)” value (“t½, terminal elimination half-life” below) ([1]; Healthy Controls) was 9.53 h, the “AUC in plasma (mean, untransformed)” value [1, 8] was 2440 ng·h/mL and the “Cmax in plasma (mean, untransformed)” value [1, 8] was 170 ng/mL. The “t½, terminal elimination half-life” value [1, 8] was 9.5 h, the “AUC in plasma (mean, untransformed)” value ([1]; Mild Impairment) was 4468.6 ng·h/mL and the “AUCT in plasma (mean, untransformed)” value ([1]; Mild Impairment) was 4330.7 ng·h/mL. The “Cmax in plasma (mean, untransformed)” value ([1]; Mild Impairment) was 280.2 ng/mL, the “Tmax in plasma (median)” value ([1]; Mild Impairment) was 3.5 h and the “t½, terminal elimination half-life” value ([1]; Mild Impairment) was 10.23 h. For the same compound, the “AUC in plasma (mean, untransformed)” value ([1]; Moderate Impairment) was 8129.7 ng·h/mL, the “AUCT in plasma (mean, untransformed)” value ([1]; Moderate Impairment) was 7959.9 ng·h/mL and the “Cmax in plasma (mean, untransformed)” value ([1]; Moderate Impairment) was 359.7 ng/mL. For the same compound, the “Tmax in plasma (median)” value ([1]; Moderate Impairment) was 4.5 h, the “t½, terminal elimination half-life” value ([1]; Moderate Impairment) was 11.10 h and the “AUC in plasma (mean, untransformed)” value ([1]; Severe Impairment) was 23604.2 ng·h/mL. The “AUCT in plasma (mean, untransformed)” value ([1]; Severe Impairment) was 22313.6 ng·h/mL, the “Cmax in plasma (mean, untransformed)” value ([1]; Severe Impairment) was 547.7 ng/mL and the “Tmax in plasma (median)” value ([1]; Severe Impairment) was 11.0 h. For the same compound, the “t½, terminal elimination half-life” value ([1]; Severe Impairment) was 22.09 h, the “AUC in plasma (mean, untransformed)” value [1, 9] was 23604 ng·h/mL and the “Cmax in plasma (mean, untransformed)” value [1, 9] was 548 ng/mL. The “t½, terminal elimination half-life” value [1, 9] was 22.1 h, the “Mean percentage of the administered dose excreted in the urine” value (from here on “Mean percentage”) ([2]; healthy controls) was 37.16% and the “Mean percentage” value ([2]; severe renal impairment) was 38.35%. The “Mean urinary elimination half-life” value ([2]; healthy controls) was 12.7 h, the “Mean urinary elimination half-life” value ([2]; mild renal impairment) was 9.8 h and the “Mean urinary elimination half-life” value ([2]; moderate renal impairment) was 12.8 h. For the same compound, the “Mean urinary elimination half-life” value ([2]; severe renal impairment) was 36.6 h, the “Mean (SD) Ratio of Metabolite/Parent Excreted in Urine” value ([2]; healthy controls) was 51.78 (16.89) and the “Mean (SD) Percent of Dose Recovered in Urine (0-120 hours)” value (from here on “Mean (SD) Percent of Dose Recovered”) ([2]; healthy controls) was 37.16 (14.94) %. For the same compound, the “Mean (SD) Ratio of Metabolite/Parent Excreted in Urine” value [2, 10] was 72.17 (48.36), the “Mean (SD) Percent of Dose Recovered” value [2, 10] was 44.36 (8.72) % and the “Mean (SD) Ratio of Metabolite/Parent Excreted in Urine” value [2, 11] was 70.62 (37.69). The “Mean (SD) Percent of Dose Recovered” value [2, 11] was 38.87 (8.63) %, the “Mean (SD) Ratio of Metabolite/Parent Excreted in Urine” value [2, 12] was 112.44 (40.45) and the “Mean (SD) Percent of Dose Recovered” value [2, 12] was 38.35 (13.10) %. The “AUC/wt vs. CLCR: R-square” value [3] was 0.4911, the “AUC/wt vs. CLCR: Slope” value [3] was −1.4140 and the “AUC vs. CLCR: R-square” value [3] was 0.4976. The “AUC vs. CLCR: Slope” value [3] was −221.43.

For `CN1CC[C@]23c4c5ccc(O)c4O[C@H]2C(O)CC[C@@]3(O)[C@H]1C5` (some centres unmarked) [6-OH-oxymorphone, 6-hydroxy oxymorphone], the “Mean bioavailability ratio (90% confidence interval) for AUC relative to controls” value [1, 5] was 0.9953 (0.6153-1.6100), the “Mean bioavailability ratio (90% confidence interval) for Cmax relative to controls” value [1, 5] was 1.4818 and the “Mean bioavailability ratio (90% confidence interval) for AUC relative to controls” value [1, 6] was 0.9445 (0.5839-1.5279). For the same compound, the “Mean bioavailability ratio (90% confidence interval) for AUC relative to controls” value [1, 7] was 1.3862 (0.8569-2.2423), the “AUC in plasma (mean, untransformed)” value ([1]; Healthy Controls) was 19.76 ng·h/mL and the “AUCT in plasma (mean, untransformed)” value ([1]; Healthy Controls) was 14.95 ng·h/mL. For the same compound, the “Cmax in plasma (mean, untransformed)” value ([1]; Healthy Controls) was 0.70 ng/mL, the “Ke, terminal elimination rate constant in plasma (mean)” value (from here on “Ke, terminal elimination rate constant”) ([1]; Healthy Controls) was 0.0449 and the “Tmax in plasma (median)” value ([1]; Healthy Controls) was 1.5 h. For the same compound, the “t½, terminal elimination half-life” value ([1]; Healthy Controls) was 22.20 h, the “AUC in plasma (mean, untransformed)” value ([1]; Mild Impairment) was 18.57 ng·h/mL and the “AUCT in plasma (mean, untransformed)” value ([1]; Mild Impairment) was 14.26 ng·h/mL. For the same compound, the “Cmax in plasma (mean, untransformed)” value ([1]; Mild Impairment) was 0.99 ng/mL, the “Ke, terminal elimination rate constant” value ([1]; Mild Impairment) was 0.0451 and the “Tmax in plasma (median)” value ([1]; Mild Impairment) was 1.5 h. For the same compound, the “t½, terminal elimination half-life” value ([1]; Mild Impairment) was 18.04 h, the “AUC in plasma (mean, untransformed)” value ([1]; Moderate Impairment) was 17.64 ng·h/mL and the “AUCT in plasma (mean, untransformed)” value ([1]; Moderate Impairment) was 11.70 ng·h/mL. For the same compound, the “Cmax in plasma (mean, untransformed)” value ([1]; Moderate Impairment) was 0.76 ng/mL, the “Ke, terminal elimination rate constant” value ([1]; Moderate Impairment) was 0.0312 and the “Tmax in plasma (median)” value ([1]; Moderate Impairment) was 2.5 h. The “t½, terminal elimination half-life” value ([1]; Moderate Impairment) was 27.82 h, the “AUC in plasma (mean, untransformed)” value ([1]; Severe Impairment) was 32.04 ng·h/mL and the “AUCT in plasma (mean, untransformed)” value ([1]; Severe Impairment) was 26.48 ng·h/mL. The “Cmax in plasma (mean, untransformed)” value ([1]; Severe Impairment) was 0.99 ng/mL, the “Ke, terminal elimination rate constant” value ([1]; Severe Impairment) was 0.0349 and the “Tmax in plasma (median)” value ([1]; Severe Impairment) was 2.0 h. For the same compound, the “t½, terminal elimination half-life” value ([1]; Severe Impairment) was 26.53 h, the “Mean percentage” value ([2]; severe renal impairment) was 0.16% and the “Mean urinary elimination half-life” value ([2]; healthy controls) was 22.8 h. The “Mean urinary elimination half-life” value ([2]; mild renal impairment) was 19.6 h, the “Mean urinary elimination half-life” value ([2]; moderate renal impairment) was 22.4 h and the “Mean urinary elimination half-life” value ([2]; severe renal impairment) was 34.4 h. The “Mean (SD) Ratio of Metabolite/Parent Excreted in Urine” value ([2]; healthy controls) was 0.85 (0.27), the “Mean (SD) Percent of Dose Recovered” value ([2]; healthy controls) was 0.62 (0.28) % and the “Mean (SD) Ratio of Metabolite/Parent Excreted in Urine” value [2, 10] was 0.73 (0.45). For the same compound, the “Mean (SD) Percent of Dose Recovered” value [2, 10] was 0.49 (0.15) %, the “Mean (SD) Ratio of Metabolite/Parent Excreted in Urine” value [2, 11] was 0.41 (0.22) and the “Mean (SD) Percent of Dose Recovered” value [2, 11] was 0.26 (0.14) %. The “Mean (SD) Ratio of Metabolite/Parent Excreted in Urine” value [2, 12] was 0.47 (0.42), the “Mean (SD) Percent of Dose Recovered” value [2, 12] was 0.16 (0.11) % and the “AUC/wt vs. CLCR: R-square” value [3] was 0.1222. For the same compound, the “AUC/wt vs. CLCR: Slope” value [3] was −0.0011, the “AUC vs. CLCR: R-square” value [3] was 0.0977 and the “AUC vs. CLCR: Slope” value [3] was −0.1387. The “Relation between pain relief and blood plasma level” value [4] was “there is a correlation”.
